Activity calls are given as the source filed them. The rule behind the calls is not given here.
Key:
MCF7 [1] = experiment: Cytotoxicity against human MCF7 cells by MTT assay; assay type: functional, cell-based; settings: TDE = time-dependent effect
[2] = biological target: T1, Thioredoxin reductase 1, cytoplasmic (Homo sapiens) (UniProt Q16881); experiment: Inhibition of TrxR in human HL60 cells assessed as residual activity at 1.5 using thioredoxin as substrate measured for 5 mins by UV-Vis spectrophotometric analysis; assay type: cell-based
T1 sequence (whole entry): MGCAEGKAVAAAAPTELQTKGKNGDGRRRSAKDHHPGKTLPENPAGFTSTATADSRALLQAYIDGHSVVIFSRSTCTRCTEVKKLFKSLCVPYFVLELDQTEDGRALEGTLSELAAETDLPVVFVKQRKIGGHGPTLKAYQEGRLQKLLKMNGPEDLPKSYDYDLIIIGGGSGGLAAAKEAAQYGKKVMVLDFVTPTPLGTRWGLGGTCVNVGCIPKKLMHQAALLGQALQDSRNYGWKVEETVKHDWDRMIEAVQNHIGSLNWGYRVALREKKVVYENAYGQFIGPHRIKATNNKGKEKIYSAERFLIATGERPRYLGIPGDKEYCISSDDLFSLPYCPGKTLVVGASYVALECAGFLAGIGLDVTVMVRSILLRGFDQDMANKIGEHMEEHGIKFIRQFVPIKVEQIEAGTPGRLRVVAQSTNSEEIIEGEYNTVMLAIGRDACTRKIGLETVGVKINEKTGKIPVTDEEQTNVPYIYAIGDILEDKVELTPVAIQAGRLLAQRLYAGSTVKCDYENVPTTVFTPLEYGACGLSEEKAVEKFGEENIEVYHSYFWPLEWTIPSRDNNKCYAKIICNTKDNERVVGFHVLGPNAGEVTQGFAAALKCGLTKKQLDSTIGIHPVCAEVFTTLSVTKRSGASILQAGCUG

HL-60 [3] = experiment: Induction of cell death in human HL60 cells at 1 to 1.5 uM after 24 hrs in presence of antioxidant L-ascorbic acid by trypan blue assay; assay type: functional, cell-based
HL-60 [4] = experiment: Induction of mitochondrial membrane potential loss in human HL60 cells at 1 uM after 24 hrs by JC-1 staining-based flow cytometry; assay type: functional, cell-based
Liver [5] = experiment: Induction of mitochondrial dysfunction in Wistar rat liver assessed as swelling at 20 uM in presence of calcium related inhibitor cyclosporine A; assay type: functional; settings: mitochondria
HL-60 [6] = experiment: Induction of apoptosis in human HL60 cells assessed as condensed nuclei at 0.75 to 1.5 uM after 24 hrs by Hoechst 33342 staining-based laser scanning confocal microscopic analysis; assay type: functional, cell-based
HL-60 [7] = experiment: Induction of apoptosis in human HL60 cells assessed as cell nuclear shrinkage at 0.75 to 1.5 uM after 24 hrs by Hoechst 33342 staining-based laser scanning confocal microscopic analysis; assay type: functional
HL-60 [8] = experiment: Induction of ROS generation in human HL60 cells assessed as reduction in intracellular thiols up to 2.5 uM incubated for 12 to 24 hrs by DTNB titration method; assay type: functional, cell-based
HL-60 [9] = experiment: Induction of cell death in human HL60 cells assessed as decrease in total GSH levels after 24 hrs by MTT assay; assay type: functional, cell-based
GES1 = experiment: Cytotoxicity against human GES-1 cells after 48 hrs by MTT assay; assay type: cell-based; settings: for IC50: Homo sapiens, GES1, 48 h; for Activity: human, ges1, 48 h
HL-60 [10] = experiment: Induction of cell death in human HL60 cells at 1 to 1.5 uM after 24 hrs in presence of […] BSO by MTT assay; assay type: functional, cell-based
HL-60 [11] = experiment: Cytotoxicity against human HL60 cells after 24 hrs by MTT assay; assay type: functional, cell-based; settings: for IC50: HL-60, 24 h
HL-60 [12] = experiment: Induction of mitochondrial dysfunction in human HL60 cells assessed as increase in cytochome c levels in cytosol at 1.5 uM after 24 hrs by ELISA relative to control; assay type: functional
HL-60 [13] = experiment: Induction of ROS generation in human HL60 cells at 1.5 uM after 24 hrs in presence of antioxidant lipoic acid by DCFH-DA staining-based flow cytometry; assay type: functional, cell-based
MCF7 [14] = experiment: Cytotoxicity against human MCF7 cells after 24 hrs by MTT assay; assay type: functional, cell-based; settings: for IC50: MCF7, 24 h
HL-60 [15] = experiment: Induction of apoptosis in human HL60 cells assessed as chromatin condensation at 0.75 to 1.5 uM after 24 hrs by Hoechst 33342 staining-based laser scanning confocal microscopic analysis; assay type: functional, cell-based
HL-60 [16] = experiment: Potentiation of H2O2-induced cytotoxicity in human HL60 cells assessed as induction of cell death at 1.5 to 2 uM preincubated for 6 hrs followed by compound washout and subsequent H2O2 addition measured after 18 hrs by MTT assay; assay type: functional, cell-based
HL-60 [17] = experiment: Induction of cell death in human HL60 cells at 1 to 1.5 uM after 24 hrs in presence of antioxidant lipoic acid by trypan blue assay; assay type: functional, cell-based
HL-60 [18] = experiment: Induction of cell death in human HL60 cells at 1 to 1.5 uM after 24 hrs in presence of antioxidant resveratrol by trypan blue assay; assay type: functional, cell-based
[19] = biological target: T1, Thioredoxin reductase 1, cytoplasmic (Homo sapiens); experiment: Inhibition of TrxR in human HL60 cells using thioredoxin as substrate up to 24 hrs measured for 5 mins by UV-Vis spectrophotometric analysis; assay type: cell-based
HL-60 [20] = experiment: Induction of apoptosis in human HL60 cells assessed as incomplete cell membrane at 0.75 to 1.5 uM after 24 hrs by Hoechst 33342 staining-based laser scanning confocal microscopic analysis; assay type: functional
HL-60 [21] = experiment: Induction of cell death in human HL60 cells at 1 to 1.5 uM after 24 hrs in presence of antioxidant vitamin E by trypan blue assay; assay type: functional, cell-based
HL-60 [22] = experiment: Induction of ROS generation in human HL60 cells at 1.5 uM after 24 hrs by DCFH-DA or DHE staining-based fluorescence microscopic analysis; assay type: functional, cell-based
[23] = biological target: T2, Glutathione reductase, mitochondrial (Homo sapiens) (UniProt P00390); experiment: Effect on glutathione reductase catalytic activity in human HL60 cells; assay type: cell-based
T2 sequence (whole entry): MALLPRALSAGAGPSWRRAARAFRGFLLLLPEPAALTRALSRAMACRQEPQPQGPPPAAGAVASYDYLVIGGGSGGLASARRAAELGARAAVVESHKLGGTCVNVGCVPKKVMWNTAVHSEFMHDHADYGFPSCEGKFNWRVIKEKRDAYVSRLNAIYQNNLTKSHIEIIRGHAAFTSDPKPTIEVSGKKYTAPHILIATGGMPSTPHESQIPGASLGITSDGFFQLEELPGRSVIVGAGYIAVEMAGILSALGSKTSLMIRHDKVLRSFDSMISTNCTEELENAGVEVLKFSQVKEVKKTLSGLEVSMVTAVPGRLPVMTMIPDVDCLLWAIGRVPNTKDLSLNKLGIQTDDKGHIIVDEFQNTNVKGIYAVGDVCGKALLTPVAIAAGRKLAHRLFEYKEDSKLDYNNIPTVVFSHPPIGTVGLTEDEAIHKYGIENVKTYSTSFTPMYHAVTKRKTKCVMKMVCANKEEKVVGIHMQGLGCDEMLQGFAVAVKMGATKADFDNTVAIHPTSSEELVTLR

Liver [24] = experiment: Induction of mitochondrial dysfunction in Wistar rat liver assessed as swelling at 20 uM in presence of calcium related inhibitor EGTA; assay type: functional; settings: mitochondria
HL-60 [25] = experiment: Induction of apoptosis in human HL60 cells assessed as apoptotic cells at 0.75 to 1.5 uM after 24 hrs by Annexin V-FITC/propidium iodide staining-based flow cytometry; assay type: functional

Row | SMILES | Activity (MCF7 [1]) | inhibition [2] | Activity (HL-60 [3]) | Activity (HL-60 [4]) | Activity (Liver [5]) | Activity (HL-60 [6]) | Activity (HL-60 [7]) | Activity (HL-60 [8]) | Activity (HL-60 [9]) | IC50 (GES1) [µM] | Activity (GES1) | Activity (HL-60 [10]) | Activity (HL-60 [11]) | IC50 (HL-60 [11]) [µM] | fold change (FC) (HL-60 [12]) | Activity (HL-60 [13]) | Activity (MCF7 [14]) | IC50 (MCF7 [14]) [µM] | Activity (HL-60 [15]) | Activity (HL-60 [16]) | further results
1 | Oc1ccccc1/C=N/c1ccc([As]2SCCCS2)cc1 | Tde | Dose-dependent effect | Active | Active | inactive | Active | Active | Active | Dose-dependent effect | 3.55 | Dose-dependent effect | Active | Dose-dependent effect | 0.94 | 2 | inactive | Dose-dependent effect | 5.7 | Active | Active | Activity (HL-60 [17]): inactive; Activity (HL-60 [18]): Active; inhibition [19]: Dose-dependent effect; Activity (HL-60 [20]): Active; Activity (HL-60 [21]): Active; Activity (HL-60 [22]): Active; Activity [23]: inactive; Activity (Liver [24]): inactive; Activity (HL-60 [25]): 40%
2 | O=C(Nc1ccc([As]2SCCCS2)cc1)c1ccccc1O | Tde | Dose-dependent effect | Active | Active | inactive | Active | Active | Active | Dose-dependent effect | 9.07 | Dose-dependent effect | Active | Dose-dependent effect | 0.84 | 2 | inactive | Dose-dependent effect | 11.9 | Active | Active | Activity (HL-60 [17]): inactive; Activity (HL-60 [18]): Active; inhibition [19]: Dose-dependent effect; Activity (HL-60 [20]): Active; Activity (HL-60 [21]): Active; Activity (HL-60 [22]): Active; Activity [23]: inactive; Activity (Liver [24]): inactive; Activity (HL-60 [25]): 40%

Source: ChEMBL document CHEMBL4138191, “Organic arsenicals target thioredoxin reductase followed by oxidative stress and mitochondrial dysfunction resulting in apoptosis” (Eur J Med Chem, 2018)
